From patent US20210403485A1, “PYRAZOLOPYRIMIDINE DERIVATIVE AS SELECTIVE TRK INHIBITOR” (SHANDONG LUYE PHARMACEUTICAL CO., LTD., priority 2018, published 2021)

What was measured:
TrkA = molecular target: T1, TrkA (Homo sapiens, UniProt P04629); assay: Kinase inhibitory activity (33P-ATP, filtration-binding method, Reaction Biology Corp.); format: biochemical; settings: read-out: Half maximal inhibitory concentration IC50 for kinases, TrkA
T1 construct: purchased Reaction Biology Corp
Description: (§1) The mixture was incubated at room temperature for 20 minutes, added with ^33P-ATP at a certain concentration to start the reaction, and then incubated at room temperature for 120 minutes. Finally, the radioactivity of the reactant was detected by the filtration-binding method. The final kinase activity was expressed as the ratio of the remaining kinase activity in the test sample to the kinase activity of the DMSO control. The dose-response curves were fitted and IC50 values were calculated by GraphPad software.

TrkC = molecular target: T2, TrkC (Homo sapiens, UniProt Q16288); assay: as above; format: biochemical; settings: read-out: Half maximal inhibitory concentration IC50 for kinases, TrkC
T2 construct: purchased Reaction Biology Corp
T2 sequence (Q16288 32-839): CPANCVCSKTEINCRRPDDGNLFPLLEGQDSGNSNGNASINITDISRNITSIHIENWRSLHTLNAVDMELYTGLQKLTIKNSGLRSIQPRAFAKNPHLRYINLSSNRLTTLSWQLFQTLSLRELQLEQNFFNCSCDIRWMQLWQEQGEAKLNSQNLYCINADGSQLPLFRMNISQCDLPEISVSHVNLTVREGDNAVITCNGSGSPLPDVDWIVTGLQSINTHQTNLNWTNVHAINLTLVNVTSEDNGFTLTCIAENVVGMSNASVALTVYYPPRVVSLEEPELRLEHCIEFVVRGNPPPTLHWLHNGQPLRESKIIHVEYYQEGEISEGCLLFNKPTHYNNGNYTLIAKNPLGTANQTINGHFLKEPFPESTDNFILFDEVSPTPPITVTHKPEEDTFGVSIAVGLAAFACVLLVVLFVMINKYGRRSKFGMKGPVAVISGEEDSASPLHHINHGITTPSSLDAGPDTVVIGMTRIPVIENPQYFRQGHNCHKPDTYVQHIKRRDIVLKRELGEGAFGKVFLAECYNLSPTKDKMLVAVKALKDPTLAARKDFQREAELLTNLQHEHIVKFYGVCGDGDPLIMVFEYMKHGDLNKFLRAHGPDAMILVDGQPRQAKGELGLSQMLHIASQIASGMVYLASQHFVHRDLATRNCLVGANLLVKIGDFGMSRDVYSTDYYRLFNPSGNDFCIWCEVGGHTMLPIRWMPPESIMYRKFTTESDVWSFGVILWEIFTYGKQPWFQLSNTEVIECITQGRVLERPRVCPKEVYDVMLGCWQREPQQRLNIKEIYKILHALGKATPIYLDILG
Description: as §1

ALK = molecular target: T3, ALK (Homo sapiens, UniProt Q9UM73); assay: as above; format: biochemical; settings: read-out: Half maximal inhibitory concentration IC50 for kinases, ALK
T3 construct: purchased Reaction Biology Corp
Description: as §1

TrkA-G595R = molecular target: T4, TrkA-G595R (Homo sapiens, UniProt P04629, G595R); assay: as above; format: biochemical; settings: read-out: Half maximal inhibitory concentration IC50 for kinases, TrkA-G595R
T4 construct: purchased Reaction Biology Corp
T4 sequence (P04629 33-796 G595R): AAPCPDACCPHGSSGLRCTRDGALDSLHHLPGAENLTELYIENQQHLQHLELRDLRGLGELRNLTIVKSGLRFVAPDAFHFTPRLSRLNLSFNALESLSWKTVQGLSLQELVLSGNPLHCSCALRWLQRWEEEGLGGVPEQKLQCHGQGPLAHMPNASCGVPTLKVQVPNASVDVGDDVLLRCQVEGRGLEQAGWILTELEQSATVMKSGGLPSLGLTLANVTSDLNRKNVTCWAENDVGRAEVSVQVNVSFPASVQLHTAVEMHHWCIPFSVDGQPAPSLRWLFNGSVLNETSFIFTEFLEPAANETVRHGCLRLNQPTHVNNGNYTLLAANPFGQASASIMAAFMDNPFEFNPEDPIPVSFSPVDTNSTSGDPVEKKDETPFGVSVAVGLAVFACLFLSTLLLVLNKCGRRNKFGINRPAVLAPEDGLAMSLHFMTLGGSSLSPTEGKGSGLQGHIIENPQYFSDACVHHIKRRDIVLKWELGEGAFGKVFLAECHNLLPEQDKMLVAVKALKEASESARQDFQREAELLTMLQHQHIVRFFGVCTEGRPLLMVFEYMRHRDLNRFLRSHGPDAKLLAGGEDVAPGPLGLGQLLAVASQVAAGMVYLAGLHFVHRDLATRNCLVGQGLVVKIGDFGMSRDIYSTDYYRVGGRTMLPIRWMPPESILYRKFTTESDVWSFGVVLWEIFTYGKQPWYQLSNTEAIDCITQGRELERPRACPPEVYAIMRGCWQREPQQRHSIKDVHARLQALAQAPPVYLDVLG
Description: as §1

Ros1 = molecular target: T5, Ros1 (Homo sapiens, UniProt P08922); assay: as above; format: biochemical; settings: read-out: Half maximal inhibitory concentration IC50 for kinases, Ros1
T5 construct: purchased Reaction Biology Corp
T5 sequence (P08922 28-2347): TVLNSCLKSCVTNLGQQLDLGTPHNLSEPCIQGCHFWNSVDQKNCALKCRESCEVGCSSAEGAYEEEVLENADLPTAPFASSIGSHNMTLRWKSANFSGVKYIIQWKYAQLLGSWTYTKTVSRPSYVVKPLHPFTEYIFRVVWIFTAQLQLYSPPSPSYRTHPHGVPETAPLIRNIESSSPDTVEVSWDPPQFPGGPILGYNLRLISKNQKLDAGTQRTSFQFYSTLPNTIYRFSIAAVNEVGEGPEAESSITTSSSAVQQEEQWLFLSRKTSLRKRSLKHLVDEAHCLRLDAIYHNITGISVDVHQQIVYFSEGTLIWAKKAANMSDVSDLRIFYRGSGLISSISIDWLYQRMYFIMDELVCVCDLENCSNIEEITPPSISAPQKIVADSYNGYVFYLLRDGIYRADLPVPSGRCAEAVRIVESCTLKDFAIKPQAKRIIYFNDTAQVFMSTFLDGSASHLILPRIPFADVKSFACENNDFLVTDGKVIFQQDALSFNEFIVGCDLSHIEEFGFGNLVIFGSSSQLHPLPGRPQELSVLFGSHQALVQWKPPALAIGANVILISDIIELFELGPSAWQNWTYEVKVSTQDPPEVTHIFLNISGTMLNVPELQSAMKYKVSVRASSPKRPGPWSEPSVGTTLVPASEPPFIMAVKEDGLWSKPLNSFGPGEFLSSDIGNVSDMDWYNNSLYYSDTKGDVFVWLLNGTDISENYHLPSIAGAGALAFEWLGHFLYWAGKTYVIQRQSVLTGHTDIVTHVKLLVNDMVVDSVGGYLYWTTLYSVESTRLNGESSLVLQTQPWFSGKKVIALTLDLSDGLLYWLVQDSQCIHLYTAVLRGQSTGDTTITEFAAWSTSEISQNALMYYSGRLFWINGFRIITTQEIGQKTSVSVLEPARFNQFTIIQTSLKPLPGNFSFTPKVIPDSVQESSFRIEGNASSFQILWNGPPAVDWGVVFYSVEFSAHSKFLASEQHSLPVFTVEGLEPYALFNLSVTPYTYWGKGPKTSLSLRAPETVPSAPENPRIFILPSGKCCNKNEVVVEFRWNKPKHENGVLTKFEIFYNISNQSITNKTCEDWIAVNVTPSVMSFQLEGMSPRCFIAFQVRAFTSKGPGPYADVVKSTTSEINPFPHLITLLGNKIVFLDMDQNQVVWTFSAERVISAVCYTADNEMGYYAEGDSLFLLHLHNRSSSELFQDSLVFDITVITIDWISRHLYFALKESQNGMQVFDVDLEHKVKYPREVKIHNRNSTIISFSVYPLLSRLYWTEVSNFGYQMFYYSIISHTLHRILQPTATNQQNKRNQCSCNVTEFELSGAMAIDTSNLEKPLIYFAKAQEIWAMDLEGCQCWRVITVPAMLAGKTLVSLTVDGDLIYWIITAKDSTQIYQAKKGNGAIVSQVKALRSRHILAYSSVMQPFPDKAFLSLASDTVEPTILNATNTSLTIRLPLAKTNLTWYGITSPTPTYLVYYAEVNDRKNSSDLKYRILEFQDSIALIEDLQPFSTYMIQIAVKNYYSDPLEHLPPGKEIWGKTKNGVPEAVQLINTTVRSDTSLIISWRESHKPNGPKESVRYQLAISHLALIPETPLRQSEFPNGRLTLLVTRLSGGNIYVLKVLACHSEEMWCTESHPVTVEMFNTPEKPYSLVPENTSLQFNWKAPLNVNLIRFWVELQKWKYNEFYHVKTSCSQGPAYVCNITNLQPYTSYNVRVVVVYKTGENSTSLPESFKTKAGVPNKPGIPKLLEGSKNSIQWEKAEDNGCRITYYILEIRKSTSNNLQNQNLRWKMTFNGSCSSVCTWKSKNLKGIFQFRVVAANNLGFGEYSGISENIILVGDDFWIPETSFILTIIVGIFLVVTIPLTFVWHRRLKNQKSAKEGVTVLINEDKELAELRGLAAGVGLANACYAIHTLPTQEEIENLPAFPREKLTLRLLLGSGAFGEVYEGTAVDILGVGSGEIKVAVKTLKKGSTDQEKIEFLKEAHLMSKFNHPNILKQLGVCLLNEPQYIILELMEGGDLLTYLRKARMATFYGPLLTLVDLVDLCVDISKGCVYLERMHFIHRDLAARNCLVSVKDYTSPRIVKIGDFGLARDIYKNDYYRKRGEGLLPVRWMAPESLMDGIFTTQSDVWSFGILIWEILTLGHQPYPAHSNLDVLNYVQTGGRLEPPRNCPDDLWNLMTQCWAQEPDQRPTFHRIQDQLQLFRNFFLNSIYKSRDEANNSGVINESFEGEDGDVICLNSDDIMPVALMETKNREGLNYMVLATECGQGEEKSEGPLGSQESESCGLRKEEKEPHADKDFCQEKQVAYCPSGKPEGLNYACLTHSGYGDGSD
Description: as §1

TrkA-G667C = molecular target: T6, TrkA-G667C (Homo sapiens, UniProt P04629, G667C); assay: as above; format: biochemical; settings: read-out: Half maximal inhibitory concentration IC50 for kinases, TrkA-G667C
T6 construct: purchased Reaction Biology Corp
T6 sequence (P04629 33-796 G667C): as the sequence (P04629 33-796 G595R) above, with R563G, G635C counted along it
Description: as §1

BaF3 LMNA-NTRK1-G667A = molecular target: T7, BaF3 LMNA-NTRK1-G667A (Homo sapiens, UniProt P04629, G667A, cells depend on it); assay: Inhibitory activity against cell proliferation (CellTiter-Glo, 72 hours); format: cell-based; settings: read-out: Half maximal inhibitory concentration IC50 of cells, BaF3 LMNA-NTRK1-G667A
T7 construct: fused on or other part: N-terminal part of LMNA as fusion partner (part of the key); P02545 (Prelamin-A/C)
Description: (§2) Adenosine Triphosphate (ATP) is an energy carrier commonly used in various life activities in nature, and is the minimum unit for energy storage and transfer. The CellTiter-Glo™ cell viability assay kit uses luciferase as an assay agent, which requires the involvement of ATP in luminescence. The CellTiter-Glo™ reagent is added into cell culture medium to measure the luminescence value. The luminescence signal is directly proportional to the amount of ATP in the system, and the ATP is positively correlated with the number of viable cells. Therefore, the proliferation of cells can be detected by detecting the ATP content using the CellTiter-Glo kit.
(§3) a) Cells in the logarithmic growth phase were collected and counted using a […]. The cell viability was detected by the trypan blue exclusion method, and the cell viability was kept over 90%.
(§4) b) The cell concentration was adjusted; 90 μL of the cell suspension was added to a 96-well plate.
(§5) a) A 10-fold compound solution was prepared, with the highest concentration being 10 μM (a total of 9 concentrations, 3-fold dilution). 10 μL of compound solution was added to each well of a 96-well plate inoculated with cells, and three duplicate wells were set for each compound concentration.
(§6) a) The CTG reagent was thawed and the cell plate was equilibrated to room temperature for 30 minutes.
(§7) b) An equal volume of CTG solution was added to each well.
(§8) c) The plate was shaken on an orbital shaker for 5 minutes to lyse the cells.
(§9) d) The cell plate was placed at room temperature for 20 minutes to stabilize the luminescence signal.
(§10) e) The luminescence value was read.
(§11) The data were analyzed using GraphPad Prism 5.0 software, fitted with nonlinear S-curve regression to give dose-response curves, and IC50 values were calculated therefrom.

BaF3 ETV6-NTRK3-WT = molecular target: T8, BaF3 ETV6-NTRK3-WT (Homo sapiens, UniProt Q16288); assay: as above; format: cell-based; settings: read-out: Half maximal inhibitory concentration IC50 of cells, BaF3 ETV6-NTRK3-WT
T8 construct: fused on or other part: N-terminal part of ETV6 (TEL) as fusion partner (part of the key); P41212 (Transcription factor ETV6)
T8 sequence (Q16288 whole entry, change not shown, the tested form may be a part): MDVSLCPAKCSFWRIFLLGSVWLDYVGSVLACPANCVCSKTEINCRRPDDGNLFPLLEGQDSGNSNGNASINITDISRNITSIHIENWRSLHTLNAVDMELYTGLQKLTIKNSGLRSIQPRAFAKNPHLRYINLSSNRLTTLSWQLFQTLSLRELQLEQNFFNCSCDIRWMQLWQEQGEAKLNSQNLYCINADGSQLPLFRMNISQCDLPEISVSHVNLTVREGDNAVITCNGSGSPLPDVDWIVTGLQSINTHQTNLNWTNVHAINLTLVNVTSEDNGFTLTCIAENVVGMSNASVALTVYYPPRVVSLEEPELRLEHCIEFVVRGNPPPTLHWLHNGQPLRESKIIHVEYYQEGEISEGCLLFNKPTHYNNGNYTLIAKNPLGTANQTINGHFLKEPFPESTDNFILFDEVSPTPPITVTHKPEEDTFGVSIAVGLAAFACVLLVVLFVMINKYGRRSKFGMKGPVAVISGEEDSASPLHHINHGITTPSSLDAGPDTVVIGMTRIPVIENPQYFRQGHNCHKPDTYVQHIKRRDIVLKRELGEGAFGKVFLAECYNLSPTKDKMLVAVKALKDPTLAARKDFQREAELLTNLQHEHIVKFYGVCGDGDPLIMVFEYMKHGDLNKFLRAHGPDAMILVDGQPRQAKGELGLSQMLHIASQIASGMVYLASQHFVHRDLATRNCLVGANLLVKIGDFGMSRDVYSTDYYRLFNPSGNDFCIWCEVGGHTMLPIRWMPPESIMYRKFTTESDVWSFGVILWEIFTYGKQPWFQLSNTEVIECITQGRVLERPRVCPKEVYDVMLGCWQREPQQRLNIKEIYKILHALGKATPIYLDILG
Description: as §2, §3, §4, §5, §6, §7, §8, §9, §10, §11

Ba/F3 LMNA-NTRK1-WT = molecular target: T9, Ba/F3 LMNA-NTRK1-WT (Homo sapiens, UniProt P04629); assay: as above; format: cell-based; settings: read-out: Half maximal inhibitory concentration IC50 of cells, Ba/F3 LMNA-NTRK1-WT
T9 construct: fused on or other part: N-terminal part of LMNA as fusion partner (part of the key); P02545 (Prelamin-A/C)
Description: as §2, §3, §4, §5, §6, §7, §8, §9, §10, §11

BaF3 LMNA-NTRK1-G595R = molecular target: T10, BaF3 LMNA-NTRK1-G595R (Homo sapiens, UniProt P04629, G595R, cells depend on it); assay: as above; format: cell-based; settings: read-out: Half maximal inhibitory concentration IC50 of cells, BaF3 LMNA-NTRK1-G595R
T10 construct: fused on or other part: N-terminal part of LMNA as fusion partner (part of the key); P02545 (Prelamin-A/C)
Description: as §2, §3, §4, §5, §6, §7, §8, §9, §10, §11

Ba/F3 LMNA-NTRK1-F589L = molecular target: T11, Ba/F3 LMNA-NTRK1-F589L (Homo sapiens, UniProt P04629, F589L, cells depend on it); assay: as above; format: cell-based; settings: read-out: Half maximal inhibitory concentration IC50 of cells, Ba/F3 LMNA-NTRK1-F589L
T11 construct: fused on or other part: N-terminal part of LMNA as fusion partner (part of the key); P02545 (Prelamin-A/C)
Description: as §2, §3, §4, §5, §6, §7, §8, §9, §10, §11

Ba/F3 SLC34A2-ROS1-WT = molecular target: T12, Ba/F3 SLC34A2-ROS1-WT (Homo sapiens, UniProt P08922); assay: as above; format: cell-based; settings: read-out: Half maximal inhibitory concentration IC50 of cells, Ba/F3 SLC34A2-ROS1-WT
T12 construct: fused on or other part: N-terminal part of SLC34A2 as fusion partner (part of the key); O95436 (Sodium-dependent phosphate transport protein 2B)
Description: as §2, §3, §4, §5, §6, §7, §8, §9, §10, §11

BaF3 ETV6-NTRK3-G623R = molecular target: T13, BaF3 ETV6-NTRK3-G623R (Homo sapiens, UniProt Q16288, G623R, cells depend on it); assay: as above; format: cell-based; settings: read-out: Half maximal inhibitory concentration IC50 of cells, BaF3 ETV6-NTRK3-G623R
T13 construct: fused on or other part: N-terminal part of ETV6 (TEL) as fusion partner (part of the key); P41212 (Transcription factor ETV6)
T13 sequence (Q16288 whole entry G623R, the tested form may be a part): as the sequence (Q16288 whole entry, change not shown, the tested form may be a part) above, with G623R counted along it
Description: as §2, with “kit. In this test, the cell lines used are Ba/F3 LMNA-NTRK1-WT, Ba/F3 LMNA-NTRK1-F589L, BaF3 LMNA-NTRK1-G595R, BaF3 LMNA-NTRK1-G667A, BaF3 ETV6-NTRK3-WT, BaF3 ETV6-NTRK3-G623R, and Ba/F3 SLC34A2-ROS1-WT stable cell strains, 5000 cells/well.” for “kit.”
as §3, §4
c) Cells in the 96-well plate were incubated overnight at 37° C. with 5% CO2 and 95% humidity.
as §5
b) The cells in the 96-well plate added with compound were incubated for 72 hours at 37° C. with 5% CO2 and 95% humidity, followed by the CTG (CellTiter-Glo) analysis.
as §6, §7, §8, §9, §10, §11

T1 sequence (P04629 33-796): as the sequence (P04629 33-796 G595R) above, with R563G counted along it

| Structure (SMILES) | IC50 (TrkA) [nM] | IC50 (TrkC) [nM] | IC50 (ALK) [nM] | IC50 (TrkA-G595R) [nM] | IC50 (Ros1) [nM] | IC50 (TrkA-G667C) [nM] | other results |
| --- | --- | --- | --- | --- | --- | --- | --- |
| O=C1NC2(CC2)COc2ccc(F)cc2[C@@H]2CCCCN2c2ccn3ncc1c3n2 [WX002B] | 526 | – | – | – | – | – | – |
| O=C1NC2(CC2)COc2ncc(F)cc2C2COCCN2c2ccn3ncc1c3n2 (single isomer, unassigned) [WX001A] | > 1000 | – | – | – | – | – | – |
| C[C@@H]1COC[C@@H]2c3cc(F)cnc3OCC3(CC3)NC(=O)c3cnn4ccc(nc34)N12 [WX007] | 0.6 | 0.1 | 901 | 0.2 | 2.2 | 0.1 | GI50 (BaF3 LMNA-NTRK1-G667A): 1.2 nM; GI50 (BaF3 ETV6-NTRK3-WT): 4.1 nM; GI50 (Ba/F3 LMNA-NTRK1-WT): 0.9 nM; GI50 (BaF3 LMNA-NTRK1-G595R): 6.4 nM; GI50 (Ba/F3 LMNA-NTRK1-F589L): 100 nM; GI50 (Ba/F3 SLC34A2-ROS1-WT): 770 nM; GI50 (BaF3 ETV6-NTRK3-G623R): 13.1 nM |

Now from value to compound, other results behind:

| IC50 (TrkA) [nM] | IC50 (TrkC) [nM] | IC50 (ALK) [nM] | IC50 (TrkA-G595R) [nM] | IC50 (Ros1) [nM] | IC50 (TrkA-G667C) [nM] | Structure (SMILES) | other results |
| --- | --- | --- | --- | --- | --- | --- | --- |
| 4.1 | 0.3 | > 1000 | 8.9 | 28.7 | 189 | O=C1NC2(CC2)CNc2ncc(F)cc2C2COCCN2c2ccn3ncc1c3n2 (single isomer, unassigned) [WX010A] | – |
| > 1000 | – | – | – | – | – | O=C1N[C@@H]2COC[C@@H]2Oc2ncc(F)cc2[C@@H]2COCCN2c2ccn3ncc1c3n2 [WX005B] | – |
| > 1000 | – | – | – | – | – | O=C1NC2(CC2)COc2ncc(F)cc2[C@@H]2CCOCCN2c2ccn3ncc1c3n2 [WX009B] | – |
